Data reported in patent US20200069775A1, “BRAIN OSTEOCALCIN RECEPTOR AND COGNITIVE DISORDERS” (The Trustees of Columbia University in the City of New York, priority 2017, published 2020).

Assays:
16 month old WT mice = test: ICV delivery in aged WT mice, modified Novel Object Recognition test; assay type: in vivo, mouse; conditions: ICV 10 ng/hr, one month
Procedure: ICV pumps delivering (10 ng/hr) recombinant uncarboxylated full-length mouse osteocalcin were implanted in 16 month old WT mice. After an infusion period of one month, the mice were subjected to a modified version of the Novel Object Recognition test, to assay memory and hippocampal function. Briefly, mice were given five 5 minute exposures, with 3 minute resting intervals between exposures, to a novel arena containing two objects. During exposures 1-4, mice were habituated to these two objects, which elicited equal amounts of exploration. In the fifth exposure, one of the objects was replaced with a novel object.

[1] = tested on: Bdnf accumulation in the hippocampus; test: BDNF accumulation (Western blot) in hippocampus after peripheral osteocalcin; assay type: in vivo, mouse; conditions: WT mice injected peripherally, 16 hours (FIG. 13h)
Procedure: FIG. 13. Exogenous osteocalcin improves anxiety and cognition in aged WT mice. (Panel a) EPMT performed in aged mice receiving plasma from aged, young WT, or young Ocn−/− mice, and aged WT mice receiving plasma from young Ocn−/− supplemented with 90 ng/g osteocalcin. Number of entries and time spent (s) in the open arms were scored. (Panel b) NOR performed in aged WT mice receiving plasma from WT mice either aged or young, or from young Ocn−/− mice or from young Ocn−/− supplemented with 90 ng/g osteocalcin. Preference index (time spent with novel object/total exploration time) was measured for each group. (Panel c) BDNF accumulation (representative Western blot, left) and quantification of band intensities (right) in hippocampi of aged WT mice receiving plasma from WT, either aged or young, or from young Ocn−/− mice. α-Tubulin is used as a loading control. (Panel d) DLT performed in 12 and 16 month-old WT mice treated with vehicle or osteocalcin. Number of entries in the lit compartment was measured. (Panel e) EPMT performed in 12 and 16 month-old WT mice treated with vehicle or osteocalcin. Time spent in the lit compartment and open arms was measured. (Panel f) MWMT performed over 10 days in 12 and 16 month-old WT mice treated with vehicle or osteocalcin. […] Preference index (time spent with novel object/total exploration time) was measured for each group. […]

## osteocalcin: Recombinant osteocalcin bacterially produced, cleaved from the GST subunit; completely undercarboxylated at all three sites; full-length mouse osteocalcin (YLGASVPSPDPLEPTREQCELNPACDELSDQYGLKTAYKRIYGITI)
16 month old WT mice
  discrimination between novel and constant objects: able to discriminate between the novel and constant objects
  time exploring the novel object (Novel Object Recognition): spent less time exploring the novel object than mice treated with vehicle alone
[1]
  Bdnf accumulation in the hippocampi: increased
